Data set [1] deals with T1, human glutathione transferase A1-1 (hGSTA1-1) (Homo sapiens, UniProt P08263).
T1 construct: gene GSTA1; recombinant purified hGSTA1-1 homodimer
T1 sequence (P08263 2-222): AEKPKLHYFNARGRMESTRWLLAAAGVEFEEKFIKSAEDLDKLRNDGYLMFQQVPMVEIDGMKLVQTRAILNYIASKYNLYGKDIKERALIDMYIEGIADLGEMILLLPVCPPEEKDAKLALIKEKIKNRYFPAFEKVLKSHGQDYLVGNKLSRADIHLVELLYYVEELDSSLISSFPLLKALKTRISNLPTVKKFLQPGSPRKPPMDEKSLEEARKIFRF
The data set is described as follows: X-ray crystal structure (GSH moiety of the GSH–CBL adduct); initial velocity kinetics with GSH as variable substrate. The class given is binding.

The target in data set [2] is T1, human glutathione transferase A1-1 (hGSTA1-1). The data set is described as follows: irreversible enzyme inactivation kinetics in absence of GSH (apparent KD, fast phase), MALDI-TOF MS of CBL-modified subunit, DTNB cysteine titration; also a substrate in presence of GSH. The class given is biochemical. The conditions noted are these: read-out: Kd.
Data set [3] deals with the molecule itself. In words: crystal structure; hGSTA1-1 (19.7 mg/mL) incubated with CBL at 1:3 molar ratio; 17-20% PEG 2000, 0.1 M Tris-HCl pH 7.5, 0.1 mM beta-mercaptoethanol, vapor diffusion at 20°C; 2.1 Å; monomers A and B in the model.

As for `N[C@@H](CCC(=O)N[C@@H](CS)C(=O)NCC(=O)O)C(=O)O` [GSH], in data set [1], the “X-ray crystal structure (GSH moiety of the GSH-CBL adduct); initial velocity kin” value was “Difference Fourier electron density maps indicate the presence of a GSH moiety in the G-site of the enzyme”.
For `O=C(O)CCCc1ccc(N(CCCl)CCCl)cc1` [chlorambucil], the KI (inactivation) in data set [2] worked out at 2950 ± 500 µM.

B1: human glutathione transferase A1-1 (enzyme)
chain: KPKLHYFNARGRMESTRWLLAAAGVEFEEKFIKSAEDLDKLRNDGYLMFQQVPMVEIDGMKLVQTRAILNYIASKYNLYGKDIKERALIDMYIEGIADLGEMILLLPVCPPEEKDAKLALIKEKIKNRYFPAFEKVLKSHGQDYLVGNKLSRADIHLVELLYYVEELDSSLISSFPLLKALKTRISNLPTVKKFLQPGSPRKPPMDEKSLEEARKIF
notes: glutathione transferase A1 subunit, human; the crystal model holds residues 4-220 (monomer A) and 3-221 (monomer B, without 112-115); Homodimer; MALDI-TOF of the unmodified subunit: m/z 25,482; also called hGSTA1-1; GSTA1-1; source: recombinant
As for B1, the binding result in data set [3] was “binds”.

These data come from paper PMC3584069, “The Interaction of the Chemotherapeutic Drug Chlorambucil with Human Glutathione Transferase A1-1: Kinetic and Structural Analysis” (PLoS ONE, 2013).
